Measurements from patent US12138263B2, “Pyrazolo[3,4-b]pyrazine SHP2 phosphatase inhibitors and methods of use thereof” (Relay Therapeutics, Inc., priority 2018, dated 2024).
Counter-ions that a name gives are not always drawn.

Biological target: SHP2 (Homo sapiens (Human), UniProt Q06124)
Experiment: SHP2 allosteric inhibition assay (DiFMUP prompt fluorescence)
Format: biochemical
Conditions: 0.25 nM SHP2 with 0.5 μM peptide IRS1_pY1172(dPEG8)pY1222, substrate DiFMUP 100 μM

Chain of SHP2 (Q06124 whole entry): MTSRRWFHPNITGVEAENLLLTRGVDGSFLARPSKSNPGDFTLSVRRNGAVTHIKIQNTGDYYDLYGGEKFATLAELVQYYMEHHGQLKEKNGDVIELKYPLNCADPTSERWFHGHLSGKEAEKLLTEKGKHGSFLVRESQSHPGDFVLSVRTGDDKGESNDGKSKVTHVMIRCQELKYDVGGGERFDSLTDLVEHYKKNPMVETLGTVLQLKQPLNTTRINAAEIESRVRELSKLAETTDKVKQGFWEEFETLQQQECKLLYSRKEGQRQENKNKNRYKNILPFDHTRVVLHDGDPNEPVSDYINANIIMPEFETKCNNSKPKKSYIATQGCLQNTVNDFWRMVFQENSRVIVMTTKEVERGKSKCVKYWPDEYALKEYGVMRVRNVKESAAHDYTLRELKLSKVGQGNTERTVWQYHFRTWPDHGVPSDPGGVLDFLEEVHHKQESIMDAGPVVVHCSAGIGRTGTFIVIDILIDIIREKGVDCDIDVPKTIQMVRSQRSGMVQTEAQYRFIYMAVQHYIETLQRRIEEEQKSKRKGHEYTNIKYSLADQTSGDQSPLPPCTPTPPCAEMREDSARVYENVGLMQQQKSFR

Compound | IC50 (Table 2) | IC50 (Table 3) | further results
O=S(=O)(F)Oc1ccc2c(c1)CCCN2c1n[nH]c2nc(N3CCCCC3)cnc12 [Compound 1A] | – | – | IC50 (Table 1): ≥ 10000 nM
COC(=O)C1(c2cnc3c(-c4cccc(Cl)c4F)n[nH]c3n2)CCNCC1 [Compound 1B, methyl 4-(3-(3-chloro-2-fluorophenyl)-1H-pyrazolo[3,4-b]pyrazin-6-yl)piperidine-4-carboxylate] | < 1000 nM | – | –
CC1(CN)CCN(c2nc3[nH]nc(-c4cccc(Cl)c4F)c3nc2C#N)CC1 [Compound 1C] | – | < 1000 nM | –
CN(c1cnc2c(-c3cccc(Cl)c3F)n[nH]c2n1)c1ncccc1CN [Compound 1D, N-(3-(aminomethyl)pyridin-2-yl)-3-(3-chloro-2-fluorophenyl)-N-methyl-1H-pyrazolo[3,4-b]pyrazin-6-amine] | – | – | IC50 (Table 4): < 1000 nM
O=S(=O)(F)Oc1cccc2c1CCCN2c1n[nH]c2nc(N3CCCCC3)cnc12 [Compound 2A] | – | – | IC50 (Table 1): ≥ 10000 nM
Fc1c(Cl)cccc1-c1n[nH]c2nc(C3CCNCC3)cnc12 [Compound 2B] | < 1000 nM | – | –
CC1(CN)CCN(c2nc3[nH]nc(-c4cccc(Cl)c4F)c3nc2C(N)=O)CC1 [Compound 2C] | – | < 1000 nM | –
CN(c1cnc2c(-c3cccc(Cl)c3F)n[nH]c2n1)c1ncccc1CCN [Compound 2D, N-(3-(2-aminoethyl)pyridin-2-yl)-3-(3-chloro-2-fluorophenyl)-N-methyl-1H-pyrazolo[3,4-b]pyrazin-6-amine] | – | – | IC50 (Table 4): < 1000 nM
CC1(CN)CCN(c2cnc3c(N4CCCc5c(OS(=O)(=O)F)cccc54)n[nH]c3n2)CC1 [Compound 3A] | – | – | IC50 (Table 1): < 1000 nM
NC(=O)C1(c2cnc3c(-c4cccc(Cl)c4F)n[nH]c3n2)CCNCC1 [Compound 3B] | < 1000 nM | – | –
CC1(N)CCN(c2nc3[nH]nc(-c4cccc(Cl)c4F)c3nc2C(N)=O)CC1 [Compound 3C, 6-(4-amino-4-methylpiperidin-1-yl)-3-(3-chloro-2-fluorophenyl)-1H-pyrazolo[3,4-b]pyrazine-5-carboxamide] | – | < 1000 nM | –
CN(c1cnc2c(N3CCCc4ncccc43)n[nH]c2n1)c1ncccc1CCN [Compound 3D, N-(3-(2-aminoethyl)pyridin-2-yl)-3-(3,4-dihydro-1,5-naphthyridin-1(2H)-yl)-N-methyl-1H-pyrazolo[3,4-b]pyrazin-6-amine] | – | – | IC50 (Table 4): 1000 to 10000 nM
O=S(=O)(F)c1cccc2c1CCCN2c1n[nH]c2nc(N3CCCCC3)cnc12 [Compound 4A] | – | – | IC50 (Table 1): ≥ 10000 nM
OCC1(c2cnc3c(-c4cccc(Cl)c4F)n[nH]c3n2)CCNCC1 [Compound 4B] | < 1000 nM | – | –
CC1(N)CCN(c2nc3[nH]nc(-c4cccc(Cl)c4F)c3nc2C(=O)O)CC1 [Compound 4C, 6-(4-amino-4-methylpiperidin-1-yl)-3-(3-chloro-2-fluorophenyl)-1H-pyrazolo[3,4-b]pyrazine-5-carboxylic Acid] | – | 1000 to 10000 nM | –
NC1CCN(C(=O)c2cnc3c(-c4cccc(Cl)c4F)n[nH]c3n2)C1 (stereo not shown) [Compound 5B] | 1000 to 10000 nM | – | –
CC1(CN)CCN(c2nc3[nH]nc(N4CCCc5ncccc54)c3nc2O)CC1 [Compound 5C, 6-(4-(aminomethyl)-4-methylpiperidin-1-yl)-3-(3,4-dihydro-1,5-naphthyridin-1(2H)-yl)-1H-pyrazolo[3,4-b]pyrazin-5-ol] | – | < 1000 nM | –
CC1(CN)CCN(c2cnc3c(N4CCCc5cc(OS(=O)(=O)F)ccc54)n[nH]c3n2)CC1 [Compound 6A] | – | – | IC50 (Table 1): < 1000 nM
CC1(CN)CCN(C(=O)c2cnc3c(-c4cccc(Cl)c4F)n[nH]c3n2)C1 (stereo not shown) [Compound 6B] | ≥ 10000 nM | – | –
Cc1nc2c(N3CCCc4ncccc43)n[nH]c2nc1N1CCC(C)(CN)CC1 [Compound 6C, (1-(3-(3,4-dihydro-1,5-naphthyridin-1(2H)-yl)-5-methyl-1H-pyrazolo[3,4-b]pyrazin-6-yl)-4-methylpiperidin-4-yl)methanamine] | – | < 1000 nM | –
C[C@@H]1OCC2(CCN(c3cnc4c(N5CCCc6cc(OS(=O)(=O)F)ccc65)n[nH]c4n3)CC2)[C@@H]1N [Compound 7A, 1-(6-((3S,4S)-4-amino-3-methyl-2-oxa-8-azaspiro[4.5]decan-8-yl)-1H-pyrazolo[3,4-b]pyrazin-3-yl)-1,2,3,4-tetrahydroquinolin-6-yl Sulfurofluoridate] | – | – | IC50 (Table 1): < 1000 nM
CN(CCN)C(=O)c1cnc2c(-c3cccc(Cl)c3F)n[nH]c2n1 [Compound 7B] | ≥ 10000 nM | – | –

Compound | IC50 (Table 2) | IC50 (Table 3) | further results
CC1(CN)CCN(c2nc3[nH]nc(N4CCCc5ncccc54)c3nc2C#N)CC1 [Compound 7C, 6-[4-(aminomethyl)-4-methylpiperidin-1-yl]-3-(1,2,3,4-tetrahydro-1,5-naphthyridin-1-yl)-1H-pyrazolo[3,4-b]pyrazine-5-carbonitrile] | – | < 1000 nM | –
O=S(=O)(F)Oc1cnc2c(N3CCCc4ncccc43)n[nH]c2n1 [Compound 8A] | – | – | IC50 (Table 1): ≥ 10000 nM
OC1(c2cnc3c(-c4cccc(Cl)c4F)n[nH]c3n2)CCNCC1 [Compound 8B] | < 1000 nM | – | –
CC1(CN)CCN(c2nc3[nH]nc(N4CCCc5ncccc54)c3nc2C(N)=O)CC1 [Compound 8C, 6-[4-(aminomethyl)-4-methylpiperidin-1-yl]-3-(1,2,3,4-tetrahydro-1,5-naphthyridin-1-yl)-1H-pyrazolo[3,4-b]pyrazine-5-carboxamide] | – | < 1000 nM | –
NCc1ccn(Cc2cnc3c(-c4cccc(Cl)c4F)n[nH]c3n2)n1 [Compound 9B, (1-((3-(3-chloro-2-fluorophenyl)-1H-pyrazolo[3,4-b]pyrazin-6-yl)methyl)-1H-pyrazol-3-yl)methanamine] | ≥ 10000 nM | – | –
COC(=O)c1nc2c(N3CCCc4ncccc43)n[nH]c2nc1N1CCC(C)(CN)CC1 [Compound 9C, methyl 6-[4-(aminomethyl)-4-methylpiperidin-1-yl]-3-(1,2,3,4-tetrahydro-1,5-naphthyridin-1-yl)-1H-pyrazolo[3,4-b]pyrazine-5-carboxylate] | – | < 1000 nM | –
NCc1ccccc1-c1cnc2c(N3CCCc4ncccc43)n[nH]c2n1 [Compound 10B, (2-(3-(3,4-dihydro-1,5-naphthyridin-1(2H)-yl)-1H-pyrazolo[3,4-b]pyrazin-6-yl)phenyl)methanamine] | ≥ 10000 nM | – | –
COc1nc2c(N3CCCc4ncccc43)n[nH]c2nc1N1CCC2(CC1)CO[C@@H](C)[C@H]2N [Compound 10C, (3S,4S)-8-[5-methoxy-3-(1,2,3,4-tetrahydro-1,5-naphthyridin-1-yl)-1H-pyrazolo[3,4-b]pyrazin-6-yl]-3-methyl-2-oxa-8-azaspiro[4.5]decan-4-amine dihydrochloride] | – | < 1000 nM | –
CC(C)(CN)c1cnc2c(-c3cccc(Cl)c3F)n[nH]c2n1 [Compound 11B, 2-[3-(3-chloro-2-fluorophenyl)-1H-pyrazolo[3,4-b]pyrazin-6-yl]-2-methylpropan-1-amine] | ≥ 10000 nM | – | –
CC1(CN)CCN(c2nc3[nH]nc(N4CCCc5ncccc54)c3nc2CO)CC1 [Compound 11C, (6-(4-(aminomethyl)-4-methylpiperidin-1-yl)-3-(3,4-dihydro-1,5-naphthyridin-1(2H)-yl)-1H-pyrazolo[3,4-b]pyrazin-5-yl)methanol] | – | < 1000 nM | –
CC(C)(CN)c1cnc2c(N3CCCc4ncccc43)n[nH]c2n1 [Compound 12B, 2-(3-(3,4-dihydro-1,5-naphthyridin-1(2H)-yl)-1H-pyrazolo[3,4-b]pyrazin-6-yl)-2-methylpropan-1-amine] | ≥ 10000 nM | – | –
C[C@@H]1OCC2(CCN(c3nc4[nH]nc(N5CCCc6ncccc65)c4nc3C#N)CC2)[C@@H]1N [Compound 12C, 6-[(3S,4S)-4-amino-3-methyl-2-oxa-8-azaspiro[4.5]decan-8-yl]-3-(1,2,3,4-tetrahydro-1,5-naphthyridin-1-yl)-1H-pyrazolo[3,4-b]pyrazine-5-carbonitrile] | – | < 1000 nM | –
NCC1CCCCN1C(=O)c1cnc2c(-c3cccc(Cl)c3F)n[nH]c2n1 (stereo not shown) [Compound 13B] | ≥ 10000 nM | – | –
Cc1nc2c(N3CCCc4ncccc43)n[nH]c2nc1N1CCC2(CC1)CO[C@@H](C)[C@H]2N [Compound 13C, (3S,4S)-8-(3-(3,4-dihydro-1,5-naphthyridin-1(2H)-yl)-5-methyl-1H-pyrazolo[3,4-b]pyrazin-6-yl)-3-methyl-2-oxa-8-azaspiro[4.5]decan-4-amine] | – | < 1000 nM | –
C[C@@H]1OCC2(CCN(c3nc4[nH]nc(N5CCCc6ncccc65)c4nc3CO)CC2)[C@@H]1N [Compound 14C, (6-((3S,4S)-4-amino-3-methyl-2-oxa-8-azaspiro[4.5]decan-8-yl)-3-(3,4-dihydro-1,5-naphthyridin-1(2H)-yl)-1H-pyrazolo[3,4-b]pyrazin-5-yl)methanol] | – | < 1000 nM | –
COCc1nc2c(N3CCCc4ncccc43)n[nH]c2nc1N1CCC(C)(CN)CC1 [Compound 15C] | – | < 1000 nM | –
CC1(CN)CCN(c2nc3[nH]nc(N4CCCc5c4cccc5S(C)(=O)=O)c3nc2CO)CC1 [Compound 16C] | – | < 1000 nM | –
C[C@@H]1OCC2(CCN(c3nc4[nH]nc(N5CC[C@H](C)c6cc(C#N)ccc65)c4nc3CO)CC2)[C@@H]1N [Compound 17C] | – | < 1000 nM | –
C[C@H]1CCN(c2n[nH]c3nc([C@H]4CC[C@@H](CN)CC4)cnc23)c2ccc(C#N)cc21 [Compound 18B, (4S)-4-methyl-1-{6-[(1r,4r)-4-(aminomethyl)cyclohexyl]-1H-pyrazolo[3,4-b]pyrazin-3-yl}-1,2,3,4-tetrahydroquinoline-6-carbonitrile] | < 1000 nM | – | –
C[C@H]1CCN(c2n[nH]c3nc([C@H]4CC[C@H](CN)CC4)cnc23)c2ccc(C#N)cc21 [Compound 19B, (4S)-4-methyl-1-{6-[(1s,4s)-4-(aminomethyl)cyclohexyl]-1H-pyrazolo[3,4-b]pyrazin-3-yl}-1,2,3,4-tetrahydroquinoline-6-carbonitrile] | 1000 to 10000 nM | – | –
C[C@@H]1OCC2(CCN(c3nc4[nH]nc(-c5cccc(Cl)c5F)c4nc3CO)CC2)[C@@H]1N [Compound 19C] | – | < 1000 nM | –
